Test systems include SK-OV-3 ovarian; IGROV1 ovarian; NCI-H226 lung; HCT-15 colon; UACC-62 melanoma; SW-620 colon; A549 NSCLC; RPMI-8226 leukemia; A498 renal; NCI-H522 lung.
What all share (experiment): NCI-60 cell line screen, 48 h

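Following 48 hours of exposure in 96-well plates, responses at five concentrations were used to interpolate endpoints linearly. Here, GI50 denotes the concentration required for 50% inhibition of growth. TGI is the concentration that stops growth completely.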 A value given as a limit tells only on which side of the number the result lay.

For the molecule `N#C[S-].[La+3].c1ccc(-c2ccccn2)nc1.c1ccc(-c2ccccn2)nc1.c1ccc(-c2ccccn2)nc1`, the GI50 is 31.7 µM in the assay with SK-OV-3 ovarian; 25.6 µM in the assay with IGROV1 ovarian; 19.5 µM in the assay with NCI-H226 lung; 7.07 µM with HCT-15 colon; 19.5 µM with UACC-62 melanoma; 33.6 µM in the assay with SW-620 colon. Also, in the assay on A549 NSCLC, the GI50 is 28.6 µM. Also, the TGI in the assay on SK-OV-3 ovarian is 99.6 µM; in the assay with IGROV1 ovarian, 60.5 µM; in the assay on NCI-H226 lung, 67.9 µM; in the assay with HCT-15 colon it was > 100 µM; with UACC-62 melanoma, 50.3 µM; in the assay with SW-620 colon, > 100 µM. Also, the TGI with A549 NSCLC was > 100 µM.

As for `Clc1cc(N/N=C(\c2ccccc2)c2ccccn2)ncn1`, the TGI was 2 µM with SK-OV-3 ovarian; 89.9 µM in the assay on IGROV1 ovarian; 67.3 µM with NCI-H226 lung; 2.7 µM with UACC-62 melanoma; 1.92 µM in the assay with RPMI-8226 leukemia; > 100 µM in the assay with SW-620 colon. For the same molecule, the TGI in the assay with A549 NSCLC is > 100 µM.

As to `Brc1ccc2[nH]c3c(C4=NCCC4)nccc3c2c1`, the TGI is > 100 µM in the assay on SK-OV-3 ovarian; > 78.7 µM in the assay with IGROV1 ovarian; 26.4 µM with NCI-H226 lung; > 49.2 µM in the assay on A498 renal; > 100 µM in the assay on NCI-H522 lung; > 69.2 µM in the assay on HCT-15 colon. Moreover, the TGI in the assay with UACC-62 melanoma was 30.5 µM; in the assay with RPMI-8226 leukemia it was > 36 µM; with SW-620 colon it was > 86.6 µM; in the assay on A549 NSCLC, > 100 µM.

For the molecule `CC1OC(OC2C(O)CC(OC3C(O)CC(OC4CCC5(C)C(CCC6C5CCC5(C)C(C7=CC(=O)OC7)C(O)CC65O)C4)OC3C)OC2C)CC(O)C1O` (stereo not drawn), the TGI in the assay on SK-OV-3 ovarian amounted to 1.31 µM; with IGROV1 ovarian, 9.81 µM; in the assay with NCI-H226 lung it was 2.14 µM; in the assay with A498 renal it was 0.908 µM; in the assay with NCI-H522 lung, 0.157 µM; in the assay with HCT-15 colon it was 1.58 µM. The TGI in the assay with UACC-62 melanoma turned out to be 1.18 µM; with RPMI-8226 leukemia it was 1.52 µM; with A549 NSCLC it was 0.0706 µM.

Consider `Cc1ccc(S(=O)(=O)OC[C@@]2(C)CC[C@]3(C)CC[C@]4(C)C(=C3C2)C=C[C@@H]2[C@@]3(C)CCCNC(C)(C)[C@@H]3CC[C@]24C)cc1`, for which the GI50 is 1.79 µM in the assay on SK-OV-3 ovarian; 1.71 µM in the assay on A498 renal; 1.7 µM with NCI-H522 lung; 2.12 µM in the assay on RPMI-8226 leukemia; 1.78 µM in the assay on SW-620 colon. For the same molecule, the TGI turned out to be 3.25 µM in the assay with SK-OV-3 ovarian; 3.13 µM in the assay with A498 renal; 3.36 µM in the assay with NCI-H522 lung; 4.63 µM in the assay on RPMI-8226 leukemia; 3.54 µM in the assay on SW-620 colon.

For `CCOC(=O)c1ccc(N(CCOS(C)(=O)=O)CCOS(C)(=O)=O)cc1`, the TGI with IGROV1 ovarian was > 100 µM; in the assay with A498 renal it was > 100 µM; with NCI-H522 lung, 41.1 µM; in the assay with HCT-15 colon, > 100 µM; with UACC-62 melanoma, 77.6 µM; with RPMI-8226 leukemia it was > 100 µM. In addition, the TGI in the assay on SW-620 colon and in the assay with A549 NSCLC was > 100 µM in each case.

In the case of `Oc1c(Br)cc2c(c1Br)-c1c(c(O)c3c4c1=NCCC=4C=N3)NCC2`, the TGI with SK-OV-3 ovarian stood at 54.8 µM; with IGROV1 ovarian, 27.4 µM; with NCI-H226 lung it was 32.8 µM; in the assay with A498 renal, 45.7 µM; in the assay on NCI-H522 lung it was 5.52 µM; in the assay on HCT-15 colon it was 30.6 µM. Further, the TGI was 11.4 µM with UACC-62 melanoma, 29.8 µM in the assay on RPMI-8226 leukemia, 50.1 µM with SW-620 colon and > 80.8 µM in the assay with A549 NSCLC.

`CCCCCCCCCCCC1N=C(N)N=C(N)N1c1cccc(Br)c1` (stereo not drawn): the GI50 in the assay with SK-OV-3 ovarian was 1.92 µM; in the assay with IGROV1 ovarian it was 1.14 µM; in the assay with A498 renal it was 2.65 µM; in the assay on NCI-H522 lung, 1.51 µM; with HCT-15 colon it was 5.2 µM; with RPMI-8226 leukemia, 1.68 µM. For the same molecule, the GI50 with SW-620 colon was 0.837 µM. In addition, the TGI in the assay on SK-OV-3 ovarian was 4.28 µM; in the assay on IGROV1 ovarian it was 2.58 µM; in the assay with A498 renal it was 11.3 µM; with NCI-H522 lung, 2.95 µM; with HCT-15 colon, 26.3 µM; in the assay with RPMI-8226 leukemia, 4.21 µM. Moreover, in the assay on SW-620 colon, the TGI came out at 2.26 µM.

Take `O=c1cc(-c2cccc(OC(F)(F)F)c2)[nH]c2ccc(N3CCCC3)cc12`: the TGI in the assay on NCI-H226 lung is 0.000657 µM; in the assay on UACC-62 melanoma it was 96.8 µM; in the assay on SW-620 colon it was > 100 µM; in the assay on A549 NSCLC, 44.5 µM.

For `Cc1c2cc[n+](Cc3ccc(I)cc3)cc2c(C)c2c1[nH]c1ccccc12`, the TGI is > 13.5 µM in the assay with SK-OV-3 ovarian; > 25 µM in the assay on IGROV1 ovarian; 5.27 µM with NCI-H226 lung; > 25 µM with A498 renal; 5.59 µM with NCI-H522 lung; > 25 µM in the assay on HCT-15 colon. Besides, the TGI was 16.6 µM in the assay on UACC-62 melanoma, 2.4 µM in the assay on RPMI-8226 leukemia, > 25 µM in the assay with SW-620 colon and > 25 µM in the assay on A549 NSCLC.

With `[CH3][Sn]([CH3])([CH3])[S]C(=S)N1CCOCC1`, the GI50 with SK-OV-3 ovarian is 9.81 µM; in the assay with IGROV1 ovarian, 0.69 µM; with NCI-H226 lung, 2.72 µM; in the assay with A498 renal, 15.3 µM; in the assay on NCI-H522 lung, 0.102 µM; in the assay with HCT-15 colon, 1.81 µM. Also, the GI50 was 0.553 µM in the assay on UACC-62 melanoma, 0.362 µM in the assay with RPMI-8226 leukemia, 0.208 µM in the assay with SW-620 colon and 1.07 µM in the assay on A549 NSCLC. In addition, the TGI with SK-OV-3 ovarian was 29.3 µM; in the assay with IGROV1 ovarian, 8.52 µM; with NCI-H226 lung it was 17 µM; in the assay with A498 renal, 73.8 µM; in the assay with NCI-H522 lung, 0.42 µM; in the assay on HCT-15 colon, > 100 µM. For the same molecule, the results for the TGI in the assay on RPMI-8226 leukemia, in the assay on SW-620 colon and with A549 NSCLC were 2.22 µM, 2.42 µM and > 92.7 µM, respectively.

Regarding `O=C(Nc1cccc(-n2ccc3c(NC(=O)c4ccccc4)ncnc32)c1)Nc1ccc(Cl)c(C(F)(F)F)c1`, the GI50 in the assay with IGROV1 ovarian is 2.92 µM; in the assay on NCI-H226 lung, 5.27 µM; with A498 renal, 2.65 µM; with NCI-H522 lung, 1.36 µM; with HCT-15 colon it was 2.51 µM; with UACC-62 melanoma, 1.77 µM. The GI50 with RPMI-8226 leukemia was 1.02 µM; with SW-620 colon it was 3.26 µM; in the assay on A549 NSCLC it was 2.11 µM. In addition, the TGI in the assay with IGROV1 ovarian was 17.1 µM; in the assay on NCI-H226 lung, 11.5 µM; in the assay with A498 renal, 9.51 µM; in the assay on NCI-H522 lung it was 6.31 µM; in the assay with HCT-15 colon it was 10.2 µM; in the assay with UACC-62 melanoma, 7.52 µM. Besides, the TGI in the assay with RPMI-8226 leukemia stood at 2.8 µM; in the assay on SW-620 colon, 10.1 µM; in the assay on A549 NSCLC, 7.35 µM.

For the origin of these results see PubChem BioAssay (NCI).
